According to the supplement of paper PMC10331698:
± gives the standard deviation of the averaged measurements.

Experiments:
Test in all cases: level (log10 ratio to DMSO vehicle control); higher = higher biomarker level / cell amount than vehicle control
[1] = compound: OCC(F)(F)C(F)(F)C(F)(F)C(F)(F)C(F)(F)C(F)(F)CO [1H,1H,8H,8H-Perfluorooctane-1,8-diol] (in DMSO)
Protocol: (§1)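 BioMAP Diversity Plus panel of 12 human primary cell co-culture systems (3C, 4H, LPS, SAg, BT, BF4T, BE3C, CASM3C, HDF3CGF, KF3CT, MyoF, Mphg). Compounds were added 1 h before stimulation and left for 24 h (MyoF 48 h; BT 72 h for soluble read-outs or 6 d for IgG). Biomarkers were read by ELISA, cytotoxicity by SRB, PBMC viability and proliferation by Alamar Blue. Each well value was divided by the mean of 8 DMSO control wells on the same plate and log10 transformed; duplicate blinded samples were tested at 4 concentrations.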

[2] = compound: CO[Si](C)(CCC(F)(F)C(F)(F)C(F)(F)C(F)(F)C(F)(F)C(F)(F)F)OC [Dimethoxymethyl((perfluorohexyl)ethyl)silane] (in DMSO)
Protocol: as §1

[3] = compound: O=C(O)C(F)(F)C(F)(F)C(F)(F)C(F)(F)C(F)(F)C(F)(F)C(F)(F)C(F)(F)F [Perfluorononanoic acid] (in DMSO)
Protocol: as §1

[4] = compound: C[C@@H]1C[C@H]2[C@@H]3CCC4=CC(=O)C=C[C@]4(C)[C@@]3(F)[C@@H](O)C[C@]2(C)[C@@]1(O)C(=O)COP(=O)(O)O [Dexamethasone sodium phosphate] (in DMSO)
Protocol: as §1

[5] = compound: O=C(O)C(F)(OC(F)(F)C(F)(F)C(F)(F)F)C(F)(F)F [Ammonium perfluoro-2-methyl-3-oxahexanoate] (in Water)
Protocol: as §1

[6] = compound: O=C(O)C(F)(F)C(F)(F)C(F)(F)OC(F)(F)F [Perfluoro(4-methoxybutanoic) acid] (in DMSO)
Protocol: as §1

Test System	level (log10) ([1]; 6700 nM)	level (log10) ([1]; 20000 nM)	level (log10) ([1]; 60000 nM)	level (log10) ([2]; 6700 nM)	level (log10) ([2]; 20000 nM)	level (log10) ([3]; 6700 nM)	level (log10) ([3]; 20000 nM)	level (log10) ([4]; 1500 nM)	level (log10) ([4]; 4400 nM)	level (log10) ([4]; 13000 nM)	level (log10) ([4]; 40000 nM)	level (log10) ([5]; 6700 nM)	level (log10) ([5]; 20000 nM)	level (log10) ([5]; 60000 nM)	level (log10) ([6]; 6700 nM)	level (log10) ([6]; 20000 nM)	level (log10) ([6]; 60000 nM)
BT:B cell Proliferation	-0.029 ± 0.024	-0.007 ± 0.038	-0.0195 ± 0.052	0.0085 ± 0.011	0.023 ± 0.0042	0.0085 ± 0.0092	0.0365 ± 0.022	-0.0145 ± 0.011	0.005 ± 0.013	-0.0245 ± 0.019	-0.0025 ± 0.015	-0.239 ± 0.0085	-0.256 ± 0.011	-0.248 ± 0.0035	-0.009 ± 0.034	-0.0165 ± 0.013	-0.006 ± 0.0099
BF4T:CCL2/MCP-1	-0.0075 ± 0.0064	-0.017 ± 0.0014	-0.009 ± 0.024	-0.0175 ± 0.00071	0.01 ± 0.021	-0.0115 ± 0.029	-0.154 ± 0.026	-0.0085 ± 0.019	-0.0165 ± 0.0035	-0.017 ± 0.0014	-0.0135 ± 0.018	0.007 ± 0.031	0.005 ± 0.048	0.0285 ± 0.021	0.031 ± 0.031	0.007 ± 0.054	0.035 ± 0.028
SAg:CCL2/MCP-1	-0.0075 ± 0.00071	-0.015 ± 0.0071	-0.0085 ± 0.00071	-0.0215 ± 0.00071	-0.0145 ± 0.0064	-0.0015 ± 0.0035	0.0555 ± 0.013	-0.024 ± 0.031	-0.029 ± 0.013	-0.089 ± 0.0042	-0.07	-0.0245 ± 0.04	0.004 ± 0.017	0.0305 ± 0.059	-0.0325 ± 0.022	-0.0225 ± 0.012	0.017 ± 0.024
LPS:CD69	0.014 ± 0.0099	-0.006 ± 0.045	-0.0125 ± 0.028	-0.046 ± 0.013	-0.0265 ± 0.0092	-0.0275 ± 0.022	-0.038 ± 0.013	0.016 ± 0.1	-0.009 ± 0.052	-0.042 ± 0.038	-0.0335 ± 0.039	0.03 ± 0.0028	0 ± 0.028	-0.0315 ± 0.04	0.02 ± 0.11	0.0405 ± 0.12	0.0255 ± 0.086
BF4T:CD106/VCAM-1	-0.006 ± 0.014	0.001 ± 0.0014	-0.006 ± 0.0057	0.018 ± 0.0014	-0.003 ± 0.02	-0.084 ± 0.086	-0.129 ± 0.035	-0.019 ± 0.011	-0.013 ± 0.028	-0.02 ± 0.0085	-0.049 ± 0.0042	-0.0735 ± 0.039	-0.018 ± 0.0085	-0.008 ± 0.0014	-0.005 ± 0.023	-0.012 ± 0.0071	-0.0015 ± 0.04
LPS:CXCL8/IL-8	-0.0075 ± 0.011	-0.0305 ± 0.0064	-0.0125 ± 0.021	0.0325 ± 0.03	0.065 ± 0.0071	0.024 ± 0.013	0.0355 ± 0.0092	0.026 ± 0.014	-0.017 ± 0.02	-0.0135 ± 0.025	-0.0475 ± 0.076	0.023 ± 0.031	0.0895 ± 0.016	0.131 ± 0.017	-0.0075 ± 0.05	0.0075 ± 0.049	0.0545 ± 0.005
LPS:sTNF-alpha	-0.123 ± 0.074	-0.145 ± 0.041	-0.146 ± 0.018	-0.0025 ± 0.0078	-0.0045 ± 0.0078	-0.0115 ± 0.028	0.0115 ± 0.025	-0.083 ± 0.047	-0.0655 ± 0.032	-0.19 ± 0.038	-0.262 ± 0.032	-0.068 ± 0.021	-0.0375 ± 0.043	-0.0225 ± 0.033	-0.017 ± 0.0071	-0.0055 ± 0.005	-0.0115 ± 0.00071
BF4T:CD90	-0.011 ± 0.023	-0.005 ± 0.028	-0.014 ± 0.018	0.0085 ± 0.018	0 ± 0.021	-0.0095 ± 0.0035	-0.045 ± 0.0028	0.009 ± 0.018	-0.002 ± 0.023	-0.005 ± 0.018	0.0025 ± 0.015	-0.0065 ± 0.011	-0.015 ± 0.011	-0.007 ± 0.024	-0.009 ± 0.011	-0.006 ± 0.0099	0 ± 0.0028
LPS:CD106/VCAM-1	-0.008 ± 0.0057	-0.011 ± 0.023	-0.0275 ± 0.018	-0.0105 ± 0.04	0.0095 ± 0.0035	-0.017 ± 0.014	-0.002 ± 0.0057	0.0095 ± 0.005	-0.0285 ± 0.026	-0.0135 ± 0.0035	-0.0375 ± 0.023	-0.0285 ± 0.016	-0.016 ± 0.0071	-0.0195 ± 0.011	-0.019 ± 0.02	-0.005 ± 0.025	-0.0155 ± 0.019
BF4T:MMP-1	-0.0055 ± 0.0064	-0.0135 ± 0.022	0.019 ± 0.03	-0.01 ± 0.054	0.0085 ± 0.023	-0.012 ± 0.028	0.0095 ± 0.016	0.006 ± 0.0014	-0.012 ± 0.013	-0.0215 ± 0.0092	-0.0125 ± 0.0021	0.031 ± 0.02	0.0105 ± 0.023	0.029 ± 0.011	0.0065 ± 0.029	0.0015 ± 0.032	0.0095 ± 0.011
LPS:CCL2/MCP-1	-0.004 ± 0.018	-0.0115 ± 0.018	-0.0135 ± 0.036	-0.0155 ± 0.028	0.013 ± 0.048	-0.0035 ± 0.033	0.0165 ± 0.016	0.023 ± 0.011	-0.0045 ± 0.012	-0.013 ± 0.0071	-0.0105 ± 0.088	0.0325 ± 0.033	-0.017 ± 0.023	-0.001 ± 0.0014	0.004 ± 0.013	-0.001 ± 0.024	0.025 ± 0.058
BE3C:CXCL11/I-TAC	-0.006 ± 0.0085	-0.0045 ± 0.026	-0.0165 ± 0.0064	-0.0055 ± 0.019	-0.0125 ± 0.0035	-0.01 ± 0.016	-0.0315 ± 0.044	0 ± 0.018	0.0145 ± 0.0021	-0.0175 ± 0.04	-0.0215 ± 0.0078	-0.011 ± 0.0057	0.0115 ± 0.0021	-0.0045 ± 0.0078	0.011 ± 0.018	0.008 ± 0.0085	0.0135 ± 0.0092
SAg:CD69	-0.022 ± 0.031	-0.002 ± 0.0071	-0.0145 ± 0.015	-0.032 ± 0.033	-0.0115 ± 0.011	-0.035	-0.0335 ± 0.015	-0.025 ± 0.02	-0.054 ± 0.02	-0.0885 ± 0.03	-0.0865 ± 0.011	-0.046 ± 0.0071	-0.0265 ± 0.019	-0.0205 ± 0.005	0.027 ± 0.076	0.0345 ± 0.066	0.045 ± 0.086
LPS:M-CSF	-0.0285 ± 0.019	-0.025 ± 0.017	-0.013 ± 0.048	-0.022 ± 0.017	0.025 ± 0.041	-0.001 ± 0.045	0.035 ± 0.024	-0.0225 ± 0.016	-0.0445 ± 0.039	-0.0265 ± 0.0078	-0.0515 ± 0.012	-0.02 ± 0.024	-0.009 ± 0.016	-0.0045 ± 0.005	-0.014 ± 0.014	-0.024	-0.008 ± 0.011
4H:CD106/VCAM-1	-0.0295 ± 0.005	0.015 ± 0.023	-0.007 ± 0.0085	0.003 ± 0.011	0.0265 ± 0.0035	-0.0245 ± 0.032	-0.029 ± 0.0071	0.004 ± 0.02	-0.011 ± 0.0042	-0.012 ± 0.0028	-0.005 ± 0.011	-0.0455 ± 0.005	-0.0365 ± 0.018	-0.037 ± 0.021	-0.0105 ± 0.012	-0.0075 ± 0.005	-0.002 ± 0.018
